Earlier results as cited in patent publication US20030119882A1, “Solid pharmaceutical composition containing torasemide” (priority 2001, published 2003).

Conditions: present in very fine dispersion in a pharmaceutical tablet; prior art, cf. EP 212 537 A

Cc1cccc(Nc2ccncc2S(=O)(=O)NC(=O)NC(C)C)c1 [torasemide of the modification II, 1-isopropyl-3-[(4-m-toluidino-3-pyridyl)sulphonyl]urea]
Rearrangement of modification II to modification I: rearranges more or less rapidly to the modification I
